Experiment [1] has as its system Beet Armyworm (Spodoptera exigua, LAPHEG). Put plainly: Bioassays on Beet Armyworm (BAW), 128-well diet tray assay. The experiment is classed as in vivo. Conditions: Spodoptera exigua. The gist of the method: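 Eight diet wells per compound were treated at 50 μg/cm^2 (acetone-water 90:10), dried, then infested with 1–5 second-instar larvae each. After five to seven days at 25 °C under 14:10 photoperiod, mortality was scored and averaged across wells.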

For experiment [2], the system named is Cabbage Looper (Trichoplusia ni, TRIPNI). Put plainly: Bioassays on Cabbage Looper (CL), 128-well diet tray assay. The experiment is classed as in vivo. The following applies: Trichoplusia ni. The gist of the method:
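One to five second-instar larvae per well on artificial diet surface-treated with 50 μg/cm^2 test molecule (applied in 90:10 acetone-water, dried). Held 5–7 days at 25° C, 14:10 light-dark; percent mortality recorded per well and averaged over eight wells.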

Setting [3] is: Beet Armyworm, Table ABC / ABC-DP rating, read-out: BAW rating.
[4] abbreviates: Cabbage Looper, Table ABC / ABC-DP rating, read-out: CL rating.
The mark [5] stands for this setting: Table ABC: Biological Results, species BAW, read-out: BAW.
Where [6] appears, read: Table ABC: Biological Results, species CL, read-out: CL.
Where [7] appears, read: Beet Armyworm, rating class, read-out: BAW.
[8] abbreviates: Cabbage Looper, rating class, read-out: CL.

The structures appear in SMILES notation. Read-outs that look alike come from different tables or passages of the source.

What is called mortality is the share of the test organisms that died. On to `Nc1cc(F)ccc1NC(=O)c1cc(NC(=O)[C@H]2[C@H](c3ccc(Cl)c(Cl)c3)C2(Cl)Cl)ccc1Cl` (relative stereo) [DP6, trans-N-(2-amino-4-fluorophenyl)-2-chloro-5-(2,2-dichloro-3-(3,4-dichlorophenyl)cyclopropane-1-carboxamido)benzamide], for which the mortality at 50 µg/cm2 in experiment [1] (168 h, second instar larvae, 50 μg/cm^2 of test molecule on artificial diet, 25° C., five to seven days, average of eight wells, read-out: BAW % Control (or Mortality) rating) was 50 to 100%; in experiment [2] (168 h, second instar larvae, 50 μg/cm^2 of test molecule on artificial diet, 25° C., five to seven days, average of eight wells, read-out: CL % Control (or Mortality) rating) it was 50 to 100%. Besides, the pest or weed control at 50 µg/cm2 in experiment [1] (setting [3]) and in experiment [2] (setting [4]) was 50 to 100% in each case.
In the case of `O=C(Nc1c(F)ccc(NC(=O)C(F)F)c1F)c1cc(NC(=O)[C@H]2[C@H](c3ccc(F)c(C(F)(F)F)c3)C2(Cl)Cl)cc(F)c1Cl` [F1347, 2-Chloro-5-((1R,3R)-2,2-dichloro-3-(4-fluoro-3-(trifluoromethyl)phenyl)cyclopropane-1-carboxamido)-N-(3-(2,2-difluoroacetamido)-2,6-difluorophenyl)-3-fluorobenzamide], the pest or weed control at 50 µg/cm2 in experiment [1] (setting [5]) and in experiment [2] (setting [6]) was 50 to 100% in each case.
As for `CC(=O)Nc1cc(NC(=O)c2cc(NC(=O)[C@H]3[C@H](c4ccc(F)c(C(F)(F)F)c4)C3(Cl)Cl)cc(F)c2F)c(F)cc1F` [F1587, N-(5-Acetamido-2,4-difluorophenyl)-5-((1R,3R)-2,2-dichloro-3-(4-fluoro-3-(trifluoromethyl)phenyl)cyclopropane-1-carboxamido)-2,3-difluorobenzamide], the pest or weed control at 50 µg/cm2 in experiment [1] (setting [7]) and in experiment [2] (setting [8]) was 50 to 100% each time.
Consider `Nc1c(F)ccc(NC(=O)c2cc(NC(=O)[C@H]3[C@H](c4ccc(F)c(Cl)c4)C3(Cl)Cl)cc(C(F)(F)F)c2Cl)c1F` (relative stereo) [F1225, trans-N-(3-Amino-2,4-difluorophenyl)-2-chloro-5-(2,2-dichloro-3-(3-chloro-4-fluorophenyl)cyclopropane-1-carboxamido)-3-(trifluoromethyl)benzamide], for which the pest or weed control at 50 µg/cm2 in experiment [1] (setting [5]) and in experiment [2] (setting [6]) was 50 to 100% in each case.
With `Cc1cc(NC(=O)[C@H]2[C@H](c3ccc(F)c(C(F)(F)F)c3)C2(Cl)Cl)cc(C(=O)Nc2cc(N)c(F)cc2F)c1Cl` [F1478, N-(5-Amino-2,4-difluorophenyl)-2-chloro-5-((1R,3R)-2,2-dichloro-3-(4-fluoro-3-(trifluoromethyl)phenyl)cyclopropane-1-carboxamido)-3-methylbenzamide], the pest or weed control at 50 µg/cm2 in experiment [1] (setting [7]) and in experiment [2] (setting [8]) was 50 to 100% throughout.
Consider `CC(=O)Nc1ccc(F)c(NC(=O)c2cc(NC(=O)[C@H]3[C@H](c4ccc(Cl)c(Cl)c4)C3(Cl)Cl)cc(C)c2Cl)c1F` [F1523, N-(3-Acetamido-2,6-difluorophenyl)-2-chloro-5-((1R,3R)-2,2-dichloro-3-(3,4-dichlorophenyl)cyclopropane-1-carboxamido)-3-methylbenzamide], for which the pest or weed control at 50 µg/cm2 in experiment [1] (setting [7]) and in experiment [2] (setting [8]) was 50 to 100% each time.
Consider `Nc1c(F)ccc(NC(=O)c2cc(NC(=O)[C@H]3[C@H](c4ccc(F)c(C(F)F)c4)C3(Cl)Cl)ccc2Cl)c1F` (relative stereo) [F1036, trans-N-(3-Amino-2,4-difluorophenyl)-2-chloro-5-(2,2-dichloro-3-(3-(difluoromethyl)-4-fluorophenyl)cyclopropane-1-carboxamido)benzamide], for which the pest or weed control at 50 µg/cm2 in experiment [1] (setting [5]) and in experiment [2] (setting [6]) was 50 to 100% throughout.
Turning to `Cc1cc(NC(=O)[C@H]2[C@H](c3ccc(Cl)c(Cl)c3)C2(Cl)Cl)cc(C(=O)Nc2cc(N)c(F)cc2F)c1Cl` [F1470, N-(5-Amino-2,4-difluorophenyl)-2-chloro-5-((1R,3R)-2,2-dichloro-3-(3,4-dichlorophenyl)cyclopropane-1-carboxamido)-3-methylbenzamide], the pest or weed control at 50 µg/cm2 in experiment [1] (setting [7]) and in experiment [2] (setting [8]) was 50 to 100% each time.
In the case of `O=C(Nc1cc(NC(=O)C(F)(F)F)c(F)cc1F)c1cc(NC(=O)[C@H]2[C@H](c3ccc(F)c(C(F)(F)F)c3)C2(Cl)Cl)ccc1Cl` [F1541, 2-Chloro-5-((1R,3R)-2,2-dichloro-3-(4-fluoro-3-(trifluoromethyl)phenyl)cyclopropane-1-carboxamido)-N-(2,4-difluoro-5-(2,2,2-trifluoroacetamido)phenyl)benzamide], the pest or weed control at 50 µg/cm2 in experiment [1] (setting [7]) and in experiment [2] (setting [8]) was 50 to 100% in each case.
`Nc1ccc(F)c(NC(=O)c2cc(NC(=O)[C@H]3[C@H](c4cc(Cl)c(Cl)c(Cl)c4)C3(Cl)Cl)cc(F)c2F)c1F` [F1770, N-(3-Amino-2,6-difluorophenyl)-5-((1R,3R)-2,2-dichloro-3-(3,4,5-trichlorophenyl)cyclopropane-1-carboxamido)-2,3-difluorobenzamide]: the pest or weed control at 50 µg/cm2 in experiment [1] (setting [3]) and in experiment [2] (setting [4]) was 50 to 100% each time.
For `O=C(Nc1ccc(F)cc1F)c1cc(NC(=O)[C@H]2[C@H](c3cc(F)c(F)c(F)c3)C2(Cl)Cl)ccc1Cl` [F1693, 2-Chloro-5-((1R,3R)-2,2-dichloro-3-(3,4,5-trifluorophenyl)cyclopropane-1-carboxamido)-N-(2,4-difluorophenyl)benzamide], the pest or weed control at 50 µg/cm2 in experiment [1] (setting [7]) and in experiment [2] (setting [8]) was 50 to 100% throughout.
`CC(=O)Nc1ccc(F)c(NC(=O)c2cc(NC(=O)[C@H]3[C@H](c4cc(Cl)c(Cl)c(Cl)c4)C3(Cl)Cl)cc(F)c2Cl)c1F` [F1520, N-(3-Acetamido-2,6-difluorophenyl)-2-chloro-5-((1R,3R)-2,2-dichloro-3-(3,4,5-trichlorophenyl)cyclopropane-1-carboxamido)-3-fluorobenzamide]: the pest or weed control at 50 µg/cm2 in experiment [1] (setting [7]) and in experiment [2] (setting [8]) was 50 to 100% in each case.
Take `CN(C(=O)c1cc(NC(=O)[C@H]2[C@H](c3ccc(Cl)c(Cl)c3)C2(Cl)Cl)ccc1Cl)c1ccc(F)c(N)c1F` [F1056, N-(3-Amino-2,4-difluorophenyl)-2-chloro-5-((1R,3R)-2,2-dichloro-3-(3,4-dichlorophenyl)cyclopropane-1-carboxamido)-N-methylbenzamide]: the pest or weed control at 50 µg/cm2 in experiment [1] (setting [5]) and in experiment [2] (setting [6]) was 50 to 100% each time.
Regarding `O=C(Nc1cc(NC(=O)C(F)(F)C(F)F)c(F)cc1F)c1cc(NC(=O)[C@H]2[C@H](c3cc(Cl)c(Cl)c(Cl)c3)C2(Cl)Cl)ccc1Cl` [F1568, 2-Chloro-5-((1R,3R)-2,2-dichloro-3-(3,4,5-trichlorophenyl)cyclopropane-1-carboxamido)-N-(2,4-difluoro-5-(2,2,3,3-tetrafluoropropanamido)phenyl)benzamide], the pest or weed control at 50 µg/cm2 in experiment [1] (setting [7]) and in experiment [2] (setting [8]) was 50 to 100% each time.
For the molecule `CC(=O)Nc1ccc(F)c(NC(=O)c2cc(NC(=O)[C@H]3[C@H](c4ccc(Cl)c(Cl)c4)C3(Cl)Cl)ccc2Cl)c1F` [F1536, N-(3-Acetamido-2,6-difluorophenyl)-2-chloro-5-((1R,3R)-2,2-dichloro-3-(3,4-dichlorophenyl)cyclopropane-1-carboxamido)benzamide], the pest or weed control at 50 µg/cm2 in experiment [1] (setting [7]) and in experiment [2] (setting [8]) was 50 to 100% throughout.
`CC(C)(C)OC(=O)N(C(=O)OC(C)(C)C)c1c(F)ccc(NC(=O)c2cc(NC(=O)[C@H]3[C@H](c4ccc(F)c(Cl)c4)C3(Cl)Cl)cc(F)c2F)c1F` (relative stereo) [F1211, trans-tert-Butyl-N-tert-butoxycarbonyl-N-[3-[[5-[[2,2-dichloro-3-(3-chloro-4-fluorophenyl)cyclopropanecarbonyl]amino]-2,3-difluorobenzoyl]amino]-2,6-difluorophenyl]carbamate]: the pest or weed control at 50 µg/cm2 in experiment [1] (setting [5]) and in experiment [2] (setting [6]) was 50 to 100% throughout.
Take `Cc1cc(F)c(NC(=O)c2cc(NC(=O)[C@H]3[C@H](c4ccc(F)c(Cl)c4)C3(Cl)Cl)ccc2Cl)cc1[N+](=O)[O-]` [F1082, 2-Chloro-5-((1R,3R)-2,2-dichloro-3-(3-chloro-4-fluorophenyl)cyclopropane-1-carboxamido)-N-(2-fluoro-4-methyl-5-nitrophenyl)benzamide]: the pest or weed control at 50 µg/cm2 in experiment [1] (setting [5]) and in experiment [2] (setting [6]) was 50 to 100% each time.
Turning to `N#Cc1cc(NC(=O)c2cc(NC(=O)[C@H]3[C@H](c4ccc(F)c(Cl)c4)C3(Cl)Cl)ccc2Cl)ccc1NC(=O)C(F)(F)F` (relative stereo) [F1388, trans-2-Chloro-N-(3-cyano-4-(2,2,2-trifluoroacetamido)phenyl)-5-(2,2-dichloro-3-(3-chloro-4-fluorophenyl)cyclopropane-1-carboxamido)benzamide], the pest or weed control at 50 µg/cm2 in experiment [1] (setting [5]) and in experiment [2] (setting [6]) was 50 to 100% throughout.
Consider `O=C(Nc1ccc(F)c(NS(=O)(=O)CCC(F)(F)F)c1F)c1cc(NC(=O)[C@H]2[C@H](c3ccc(F)c(C(F)(F)F)c3)C2(Cl)Cl)ccc1Cl` [F1350, 2-Chloro-5-((1R,3R)-2,2-dichloro-3-(4-fluoro-3-(trifluoromethyl)phenyl)cyclopropane-1-carboxamido)-N-(2,4-difluoro-3-((3,3,3-trifluoropropyl)sulfonamido)phenyl)benzamide], for which the pest or weed control at 50 µg/cm2 in experiment [1] (setting [5]) and in experiment [2] (setting [6]) was 50 to 100% each time.

The values above are taken from patent US20250228239A1, “MOLECULES HAVING PESTICIDAL UTILITY, AND INTERMEDIATES, COMPOSITIONS, AND PROCESSES, RELATED THERETO” (priority 2024, published 2025).
